Experimental data reported in PubChem BioAssay (NCI).
Where “and” joins values, the source holds several entries; their conditions need not be identical. Identical values can stand only once.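 Assay format: 96-well plates, 48-hour exposure. GI50 = concentration required for 50% inhibition of growth. Definition used: TGI = concentration required for complete inhibition of growth.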

Assays:
Test in all cases: NCI-60 cell line screen, 48 h
UACC-257 melanoma = system: UACC-257 melanoma
RXF 393 renal = system: RXF 393 renal
SF-539 CNS = system: SF-539 CNS
NCI-H522 lung = system: NCI-H522 lung
HCT-15 colon = system: HCT-15 colon
HOP-62 NSCLC = system: HOP-62 NSCLC
OVCAR-5 ovarian = system: OVCAR-5 ovarian
HL-60(TB) leukemia = system: HL-60(TB) leukemia

Row | Structure (SMILES) | GI50 (UACC-257 melanoma) | TGI (UACC-257 melanoma) | GI50 (RXF 393 renal) [µM] | TGI (RXF 393 renal) | GI50 (SF-539 CNS) | TGI (SF-539 CNS) | GI50 (NCI-H522 lung) [µM] | TGI (NCI-H522 lung) | GI50 (HCT-15 colon) | TGI (HCT-15 colon) | GI50 (HOP-62 NSCLC) | TGI (HOP-62 NSCLC) | GI50 (OVCAR-5 ovarian) | TGI (OVCAR-5 ovarian) | GI50 (HL-60(TB) leukemia) [µM] | TGI (HL-60(TB) leukemia)
1 | COC(=O)c1c2c(c(C)[n+]([O-])c1C)C(=O)C(NCc1ccc(F)cc1)=CC2=O | 0.845 µM | 2.44 µM | 1.56 | 3.51 µM | 1.72 µM | 3.15 µM | 1.7 | 4.02 µM | 1.23 µM | 3 µM | 2.4 µM | 22.5 µM | 1.8 µM | 3.59 µM | 0.745 | 3.6 µM
2 | O=C1C(Cl)=C(Nc2cc(Cl)ccc2O)C(=O)N1Cc1ccccc1 | 14.1 µM | 28.3 µM | 14.1 | 30.3 µM | 20 µM | 36.3 µM | 15.1 | 30.5 µM | 17 µM | 32.6 µM | 34 µM | > 61 µM | 18.8 µM | 35.4 µM | 25.6 | 67.1 µM
3 | c1cc(C2CCCCC2)ccc1-c1cnc2nonc2n1 | 1.28 µM | 3.9 µM | 0.514 | 1.56 µM | 0.548 µM | 1.87 µM | 0.548 | 2.56 µM | 0.438 µM | 2.26 µM | 1.21 µM | 5.98 µM | 1.7 µM | 4.04 µM | 0.318 | 1.52 µM
4 | Cc1c(NC(=O)Nc2c(Cl)cccc2Cl)c(=O)n(-c2ccccc2)n1C |  | > 100 µM |  | > 100 µM |  | > 100 µM |  | > 100 µM |  | > 100 µM |  | > 100 µM |  | > 100 µM |  | > 100 µM
5 | Cc1ccc(N=Nc2c(O)ccc3n[nH]nc23)cc1 | 5.09 µM | 39.5 µM | 13.2 | 82.1 µM | 15.8 µM | > 100 µM | 10.1 | 45.5 µM | 12.3 µM | 92.4 µM | 28 µM | > 100 µM | 43.5 µM | > 100 µM | 7.32 | 57.8 µM
6 | C=C1C(=O)O[C@@H]2CC(CO)=C([C@@H](C)CCCO)[C@@H](OC(=O)/C(C)=C\C)[C@H]12 |  | 38.1 µM |  | 37.7 µM |  | > 71.3 µM |  | 15.3 µM |  | 31.3 µM |  | > 100 µM |  | > 56.9 µM |  | 4.86 µM
7 | Oc1ccc(Cl)cc1Sc1cc(Cl)ccc1O | 2.83 µM | 19.3 µM and 6.91 µM | 4.88 | 31.1 µM and 17.1 µM | 3.14 µM | 37.2 µM and 11.2 µM | 2.41 | 13.6 µM and 9.17 µM | 3.19 µM | 45.5 µM and 11.4 µM | 3.04 µM | 32.9 µM and 12 µM | 3.12 µM | 34.3 µM and 12.7 µM | 3.19 | 37.3 µM and 7.52 µM
8 | C[C@H]1COCCN1c1nc(-c2cnc(N)cc2C(F)F)nc(N2CCOCC2)n1 | 0.166 µM | 1.58 µM | 0.129 | 0.617 µM | 0.235 µM | 1.45 µM | 0.148 | > 60.8 µM | 0.183 µM | > 100 µM | 0.414 µM | > 100 µM | 0.188 µM | > 100 µM | 0.171 | 97.8 µM
9 | COc1c(B(O)O)cccc1-c1nc2ccc3[nH]ncc3c2c2c1CCCC2 | 2.88 µM | 24.6 µM | 0.0225 | 1.25 µM | 0.133 µM | 2.81 µM | 1.41 | 10.5 µM | 2.88 µM | 14.2 µM | 1.31 µM | 19.6 µM | 2.45 µM | 25.2 µM | 0.658 | 4.87 µM
10 | Cn1cc(C2=C(c3cc[nH]c3)C(=O)NC2=O)c2ccccc21 | > 25 µM | > 25 µM | 18.3 | > 25 µM | > 25 µM | > 25 µM | 24.3 | > 25 µM | > 25 µM | > 25 µM | > 25 µM | > 25 µM | > 25 µM | > 25 µM | > 25 | > 25 µM
11 | COc1ccc(/C=C2\COc3ccc(O)c(O)c3C2=O)cc1OC | 1.75 µM | 4.93 µM | 1.44 | 2.91 µM | 1.57 µM | 3.03 µM | 0.199 | 0.473 µM | 0.488 µM | 5.73 µM | 5.98 µM | 39.3 µM | 1.73 µM | 3.8 µM | 0.44 | 5.29 µM
12 | CC(C)c1[nH]nc2c(NCc3ccc(-c4ccccn4)cc3)nc(SCCN)nc12 | 0.0414 µM and 0.0235 µM | 0.0875 µM | 0.0169 | 0.0532 µM | 0.0314 µM and 0.0272 µM | 0.0979 µM and 0.0811 µM | 0.00326 | 0.147 µM | 0.672 µM and 0.683 µM | 10.9 µM | 0.0247 µM and 0.0206 µM | 0.604 µM and 0.187 µM | 0.0472 µM and 0.0385 µM | 12.8 µM | 0.00469 | 0.0443 µM
13 | C=C1C(=O)O[C@H]2[C@H]1CC/C(COC(=O)CCCCCCCC(=O)OC/C1=C/CC[C@@]3(C)O[C@H]3[C@H]3OC(=O)C(=C)[C@@H]3CC1)=C\CC[C@@]1(C)O[C@@H]21 | 2.13 µM | 4.64 µM | 1.43 | 2.88 µM | 1.83 µM | 3.83 µM | 1.97 | 3.92 µM | 1.75 µM | 4.16 µM | 2.19 µM | 5.68 µM | 2.48 µM | 7.01 µM | 1.04 | 4.87 µM
